Columns and labels:
Format in all cases: functional, cell-based
[1] = test system: C[C@H]1COc2c(N3CCN(C)CC3)c(F)cc3c(=O)c(C(=O)O)cn1c23; assay: TP_TRANSPORTER: transepithelial transport (basal to apical) in MDR1-expressing LLC-PK1 cells
[2] = molecular target: T1, ATP-dependent translocase ABCB1 (Homo sapiens, UniProt P08183); assay: TP_TRANSPORTER: inhibition of Daunorubicin transepithelial transport (basal to apical) (Daunorubicin: 0.1 uM, Levofloxacin: 3000 uM) in MDR1-expressing LLC-PK1 cells; conditions: pig, llc-pk1, 3000 µM
[3] = molecular target: T1, ATP-dependent translocase ABCB1; assay: TP_TRANSPORTER: inhibition of DU-6895a transepithelial transport (basal to apical) (DU-6895a: 100 uM, Levofloxacin: 3000 uM) in MDR1-expressing LLC-PK1 cells; conditions: pig, llc-pk1, 3000 µM
[4] = molecular target: T1, ATP-dependent translocase ABCB1; assay: TP_TRANSPORTER: inhibition of Levofloxacin transepithelial transport (basal to apical) (Levofloxacin: 100 uM, PAH: 2500 uM) in MDR1-expressing LLC-PK1 cells; conditions: pig, llc-pk1, 2500 µM

T1 sequence (P08183 whole entry): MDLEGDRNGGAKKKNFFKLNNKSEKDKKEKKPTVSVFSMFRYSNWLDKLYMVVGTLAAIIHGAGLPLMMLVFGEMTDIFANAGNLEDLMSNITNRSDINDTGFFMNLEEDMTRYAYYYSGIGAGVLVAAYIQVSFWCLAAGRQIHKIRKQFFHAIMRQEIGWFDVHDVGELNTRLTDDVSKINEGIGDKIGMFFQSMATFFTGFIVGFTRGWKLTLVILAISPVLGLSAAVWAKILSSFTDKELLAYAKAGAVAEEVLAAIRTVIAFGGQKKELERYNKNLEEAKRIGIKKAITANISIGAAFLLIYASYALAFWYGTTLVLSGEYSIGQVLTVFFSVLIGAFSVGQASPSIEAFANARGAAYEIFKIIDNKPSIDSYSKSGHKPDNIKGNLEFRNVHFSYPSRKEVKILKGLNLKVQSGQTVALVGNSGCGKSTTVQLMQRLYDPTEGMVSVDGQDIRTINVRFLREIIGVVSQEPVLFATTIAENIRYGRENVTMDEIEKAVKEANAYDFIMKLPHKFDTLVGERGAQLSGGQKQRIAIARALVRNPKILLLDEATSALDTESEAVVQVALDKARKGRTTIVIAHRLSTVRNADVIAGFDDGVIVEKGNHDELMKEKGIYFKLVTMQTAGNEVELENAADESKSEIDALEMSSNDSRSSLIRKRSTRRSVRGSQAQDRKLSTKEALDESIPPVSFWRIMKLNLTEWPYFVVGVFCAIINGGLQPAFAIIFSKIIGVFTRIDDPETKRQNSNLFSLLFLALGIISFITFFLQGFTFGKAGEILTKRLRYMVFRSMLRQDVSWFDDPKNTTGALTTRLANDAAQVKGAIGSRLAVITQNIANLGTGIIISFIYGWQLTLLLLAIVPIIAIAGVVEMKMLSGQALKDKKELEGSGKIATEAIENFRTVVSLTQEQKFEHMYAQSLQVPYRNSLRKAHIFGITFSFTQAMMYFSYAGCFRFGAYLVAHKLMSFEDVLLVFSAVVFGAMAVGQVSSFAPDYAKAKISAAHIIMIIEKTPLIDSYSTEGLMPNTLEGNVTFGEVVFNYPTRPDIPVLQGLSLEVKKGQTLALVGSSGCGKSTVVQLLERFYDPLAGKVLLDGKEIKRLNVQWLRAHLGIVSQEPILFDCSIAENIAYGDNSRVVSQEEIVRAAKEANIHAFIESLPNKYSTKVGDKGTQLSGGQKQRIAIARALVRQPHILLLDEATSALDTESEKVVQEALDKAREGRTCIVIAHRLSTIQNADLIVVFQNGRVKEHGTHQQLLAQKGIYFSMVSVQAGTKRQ

For “ATP-dependent translocase ABCB1 (Homo sapiens)”, the Km [1] was 3 mM.
C[C@H]1COc2c(N3CCN(C)CC3)c(F)cc3c(=O)c(C(=O)O)cn1c23.C[C@H]1COc2c(N3CCN(C)CC3)c(F)cc3c(=O)c(C(=O)O)cn1c23.O [LEVOFLOXACIN] was tested, and the Activity [2] was “inhibitor [+]” and the Activity [3] was “inhibitor [+]”.
With Nc1ccc(C(=O)NCC(=O)O)cc1 [AMINOHIPPURIC ACID] the Activity [4] was “is not an inhibitor [-]”.
